Columns and labels:
[1] = target: T1, endothelin-induced contractions in isolated rat aorta rings (Rattus norvegicus, UniProt P26684); test: Inhibition of endothelin-induced contractions in isolated rat aorta rings; format: cell-based, rat (Wistar-Kyoto); conditions: read-out: pA2 value; Dose ratio (switch to the right) (converted)
T1 construct: cut out from the thorax aorta of adult Wistar-Kyoto rats; from tissue; host or cells: thoracic aorta rings of adult Wistar-Kyoto rats, endothelium removed
T1 sequence (P26684 21-426): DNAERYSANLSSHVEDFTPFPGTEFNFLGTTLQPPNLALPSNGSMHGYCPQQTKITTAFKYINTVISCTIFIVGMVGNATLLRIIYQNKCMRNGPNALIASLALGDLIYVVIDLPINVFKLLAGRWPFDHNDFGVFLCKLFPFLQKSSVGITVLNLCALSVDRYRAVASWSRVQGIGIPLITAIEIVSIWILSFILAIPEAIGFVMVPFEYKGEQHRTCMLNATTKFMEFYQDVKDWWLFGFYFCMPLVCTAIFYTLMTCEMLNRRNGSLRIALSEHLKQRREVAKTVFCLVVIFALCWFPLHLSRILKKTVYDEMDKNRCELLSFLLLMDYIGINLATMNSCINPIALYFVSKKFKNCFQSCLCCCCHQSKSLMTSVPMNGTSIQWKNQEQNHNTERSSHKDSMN
Procedure: Rings with a length of 5 mm were cut out from the thorax aorta of adult Wistar-Kyoto rats. The endothelium was removed by lightly rubbing the internal surface. Each ring was immersed at 37° C. in 10 ml of Krebs-Henseleit solution in an isolated bath while gassing with 95% O2 and 5% CO2. The isometric stretching of the rings was measured. The rings were stretched to a pre-tension of 3 g.
The corresponding pA2 value, which is a measure of the activity of the test compound, was calculated using a computer programme according to the following equation from the "dose ratio" DR for each individual dosage-activity curve.
pA2 =log(DR-1)-log(antagonist-concentration)

human ETA receptors = target: T2, human ETA receptors (Homo sapiens, UniProt P25101); test: Inhibition of endothelin binding to recombinant ETA receptors; conditions: baculovirus-insect cell membranes, 20 pM 125I-endothelin, 20° C. for 2 hours or 4° C. for 24 hours, read-out: IC50 (inhibition of specific binding of 125I-endothelin)
T2 construct: made in house; host or cells: baculovirus-infected insect cells (membrane preparation)
T2 sequence (P25101 21-427): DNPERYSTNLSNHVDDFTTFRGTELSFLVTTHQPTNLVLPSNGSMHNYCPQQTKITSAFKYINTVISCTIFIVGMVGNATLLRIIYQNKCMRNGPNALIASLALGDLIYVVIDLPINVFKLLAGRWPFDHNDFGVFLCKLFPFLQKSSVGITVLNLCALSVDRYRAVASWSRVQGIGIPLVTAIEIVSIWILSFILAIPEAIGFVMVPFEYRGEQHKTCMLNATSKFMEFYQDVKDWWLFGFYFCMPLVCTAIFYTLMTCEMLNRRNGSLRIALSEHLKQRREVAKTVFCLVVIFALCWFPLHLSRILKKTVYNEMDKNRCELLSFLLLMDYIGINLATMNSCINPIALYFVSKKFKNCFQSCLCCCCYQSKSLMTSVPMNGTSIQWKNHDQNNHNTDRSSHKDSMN
Procedure: I: […] A cDNA coding for human ETA receptors of human placenta was cloned ([…]. Yang, Y. Furuichi and C. Miyamoto, BBRC 180, 1265-1272) and expressed in the baculovirus-insect cell system. Baculovirus-infected insect cells from a 23 l fermenter are centrifuged off (3000×g, 15 minutes, 4° C.) 60 hours after the infection, re-suspended in Tris buffer (5 mM, pH 7.4, 1 mM MgCl2) and again centrifuged. After a further re-suspension and centrifugation the cells are suspended in 800 ml of the same buffer and […] at -120° C. The cells disintegrate when the suspension in this hypotonic buffer mixture is thawed. After a repeated freeze-drying/thawing cycle the suspension is homogenized and centrifuged (25000×g, 15 minutes, 4° C.). After suspension in Tris buffer (75 mM, pH 7.4, 25 mM MgCl2, 250 mM sucrose) 1 ml aliquots (protein content about 3.5 mg/ml) are stored at -85° C. […] The incubation is carried out at 20° C. for 2 hours or at 4° C. for 24 hours. The separation of free and membrane-bound radio-ligands is carried out by filtration over a glass fibre filter.

Row | Compound | Kb [1] | IC50 (human ETA receptors)
1 | COc1ccccc1Oc1c(NS(=O)(=O)c2ccc(C)cn2)nc(-c2ccnc(-c3nnn[nH]3)c2)nc1OCCO [Example 29, 5-methyl-pyridine-2-sulphonic acid 6-(2-hydroxy-ethoxy)-5-(2-methoxy-phenoxy)-2-(2-1H-tetrazol-5-yl-pyridin-4-yl)-pyrimidin-4-ylamide] | 0.1 nM | 4 nM
2 | COc1ccccc1Oc1c(NS(=O)(=O)c2ccc(SC)cc2)nc(-c2ccnc(-c3nnn[nH]3)c2)nc1OCCOC(=O)Nc1ccccn1 [Example 40, 2-[5-(2-methoxy-phenoxy)-6-(4-methylsulphanylphenylsulphonylamino)-2-(2-1H-tetrazol-5-yl-pyridin-4-yl)-pyrimidin-4-yloxy]-ethyl pyridin-2-ylcarbamate] | 0.0631 nM | 8 nM

Now from value to compound:

Row | Kb [1] | IC50 (human ETA receptors) | Compound
3 | 0.251 nM | 6 nM | COc1ccccc1Oc1c(NS(=O)(=O)c2ccc(C(C)(C)C)cc2)nc(-c2ccnc(-c3nnn[nH]3)c2)nc1OCCOC(=O)Nc1ccccn1 [Example 4, 2-[6-(4-tert-butyl-phenylsulphonylamino)-5-(2-methoxy-phenoxy)-2-(2-1H-tetrazol-5-yl-pyridin-4-yl)-pyrimidin-4-yl-oxy]-ethyl pyridin-2-ylcarbamate]
4 | 0.316 nM | 2 nM | COc1ccccc1Oc1c(NS(=O)(=O)c2ccccc2)nc(-c2ccnc(-c3nnn[nH]3)c2)nc1OCCOC(=O)Nc1ccccn1 [Example 35, 2-[5-(2-methoxy-phenoxy)-6-phenyl-sulphonylamino-2-(2-1H-tetrazol-5-yl-pyridin-4-yl)-pyrimidin-4-yloxy]-ethyl pyridin-2-ylcarbamate]
5 | 0.398 nM | 8 nM | COc1ccccc1Oc1c(NS(=O)(=O)c2ccc(C)cc2)nc(-c2ccnc(-c3nnn[nH]3)c2)nc1OCCOC(=O)Nc1ccccn1 [Example 36, 2-[5-(2-methoxy-phenoxy)-6-(4-methyl-phenylsulphonylamino)-2-(2-1H-tetrazol-5-yl-pyridin-4-yl)-pyrimidin-4-yloxy]-ethyl pyridin-2-ylcarbamate]
6 | 0.0251 nM | 1 nM | COc1ccccc1Oc1c(NS(=O)(=O)c2ccc3c(c2)OCO3)nc(-c2ccnc(-c3nnn[nH]3)c2)nc1OCCOC(=O)Nc1ccccn1 [Example 41, 2-[6-(1,3-benzodioxol-5-yl-sulphonylamino)-5-(2-methoxy-phenoxy)-2-(2-1H-tetrazol-5-yl-pyridin-4-yl)-pyrimidin-4-yloxy]-ethyl pyridin-2-ylcarbamate]

Reference: patent US6004965A, “Sulfonamides” (Hoffmann-La Roche Inc., priority 1994, dated 1999)
